Results reported in US20260226068A1, “IMIDAZOTRIAZINE IL-17A MODULATORS AND USES THEREOF” (DICE ALPHA, INC., priority 2023, published 2026).

Experiments:
IL-17A/A = molecular target: T1, IL-17A/A (Homo sapiens, UniProt Q16552); experiment: IL-17A/A HEK-Blue cell assay (SEAP reporter); type: cell-based; conditions: HEK-Blue IL-17A reporter cells, IL17A/A 5 ng/mL, 20 hours, SEAP read at A630; read-out: HEK-Blue IL17AA (IC50 for IL-17A/A inhibition)
T1 construct: purchased Genscript Z03228
T1 sequence (Q16552 24-155): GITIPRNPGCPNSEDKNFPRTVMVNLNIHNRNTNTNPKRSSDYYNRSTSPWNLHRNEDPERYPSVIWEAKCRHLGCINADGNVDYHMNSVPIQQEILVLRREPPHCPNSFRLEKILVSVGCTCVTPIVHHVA
Experimental: (§1) The HEK-Blue IL-17A reporter cell line (Fisher #NC 1408637) was used for cell-based IL-17A/A inhibition assays. Cells were grown and prepared for assays according to the manufacturer's instructions. This cell line consists of HEK 293 cells that were designed to expressed IL-17RA, IL-17RC, and the Act1 adapter molecule, the combination of which, when stimulated by IL-17A/A or IL17A/F activates a […] promoter and drives expression of the recombinant Secreted Alkaline Phosphatase (SEAP) gene. Media from the cells is then added to a development reagent (Quanti-Blue Substrate, Fisher #NC971 1613), and read at A630.
(§2) Compounds were dispensed in DMSO to an empty clear 384-well tissue culture plate in a titration ranging from 10 μM to 27 pM, with DMSO added to every well to a final concentration of […]. Cells were then added to the plate (45 μL/well at a concentration of 280,000 cells/mL). IL17A/A (Genscript #Z03228) or IL17A/F (R&D Systems) was added to the plate to a final concentration of 5 ng/mL and a final well volume of 50 μL. The cells, compound, and IL-17A/A or IL17A/F were then incubated for 20 hours before media was removed for SEAP analysis. The resulting inhibition curve was then analyzed using Dotmatics' integrated 4-parameter fit screening protocol to generate IC50 values.
(§3) Table 2 includes IC50 values for IL-17A/A and IL-17A/F inhibition of selected compounds; with compounds having a IC50 of A<100 nM; B 100-1000 nM; and C>1000 nM.

IL-17A/F = molecular target: T2, IL-17A/F (Homo sapiens, UniProt Q16552+Q96PD4); experiment: IL-17A/F HEK-Blue cell assay (SEAP reporter); type: cell-based; conditions: HEK-Blue IL-17A reporter cells, IL17A/F 5 ng/mL, 20 hours, SEAP read at A630; read-out: HEK-Blue IL17AF (IC50 for IL-17A/F inhibition)
T2 construct: purchased R&D Systems
T2 sequence (Q16552 24-155): T1 sequence (Q16552 24-155)
T2 sequence (Q96PD4 31-163): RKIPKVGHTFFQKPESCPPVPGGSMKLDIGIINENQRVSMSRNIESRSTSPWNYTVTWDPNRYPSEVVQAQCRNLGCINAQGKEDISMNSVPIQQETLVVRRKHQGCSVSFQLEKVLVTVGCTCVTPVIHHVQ
Experimental: as §1, §2, §3

| IC50 (IL-17A/A) [nM] | IC50 (IL-17A/F) [nM] | Compound |
| --- | --- | --- |
| < 100 | 100 to 1000 | CCn1nccc1C(=O)N[C@H](c1cn2nc(C[C@H]3C[C@@H](C(F)(F)F)CNC3=O)c(C(C)C(F)(F)F)nc2n1)C1CCC(F)(F)CC1 (stereo partly drawn) [Compound 214, N-((1S)-(4,4-difluorocyclohexyl)(2-(((3R,5R)-2-oxo-5-(trifluoromethyl)piperidin-3-yl)methyl)-3-(1,1,1-trifluoropropan-2-yl)imidazo[1,2-b][1,2,4]triazin-6-yl)methyl)-1-ethyl-1H-pyrazole-5-carboxamide] |
| < 100 | < 100 | CCn1nccc1C(=O)N[C@H](c1cn2nc(C[C@H]3C[C@@H](C(F)(F)F)CNC3=O)c(N3CCN4CCOC[C@@H]4C3)nc2n1)C1CCC(F)(F)CC1 [Compound 366, N—((S)-(4,4-difluorocyclohexyl)(3-((S)-hexahydropyrazino[2,1-c][1,4]oxazin-8(1H)-yl)-2-(((3R,5R)-2-oxo-5-(trifluoromethyl)piperidin-3-yl)methyl)imidazo[1,2-b][1,2,4]triazin-6-yl)methyl)-1-ethyl-1H-pyrazole-5-carboxamide] |
| < 100 | 100 to 1000 | CCn1nccc1C(=O)N[C@H](c1cn2nc(C[C@H]3C[C@@H](C(F)(F)F)CNC3=O)c(C(C)C)nc2n1)C1CCC(F)(F)CC1 [Compound 87, N-((1S)-(4,4-difluorocyclohexyl)(3-isopropyl-2-(((3R,5R)-2-oxo-5-(trifluoromethyl)piperidin-3-yl)methyl)imidazo[1,2-b][1,2,4]triazin-6-yl)methyl)-1-ethyl-1H-pyrazole-5-carboxamide] |
| < 100 | > 1000 | CCc1nonc1C(=O)N[C@H](c1cn2nc(C[C@H]3C[C@@H](C(F)(F)F)CNC3=O)c(C3CCOCC3)nc2n1)[C@H]1C[C@H](C2CC2)C1 [Compound 319, N—((S)-((1r,3S)-3-cyclopropylcyclobutyl)(2-(((3R,5R)-2-oxo-5-(trifluoromethyl)piperidin-3-yl)methyl)-3-(tetrahydro-2H-pyran-4-yl)imidazo[1,2-b][1,2,4]triazin-6-yl)methyl)-4-ethyl-1,2,5-oxadiazole-3-carboxamide] |
| < 100 | > 1000 | O=C(N[C@H](c1cn2nc(C[C@H]3C[C@@H](C(F)(F)F)CNC3=O)c(C3CCOCC3)nc2n1)C1CCC(F)(F)CC1)c1ccn[nH]1 [Compound 154, N-((1S)-(4,4-difluorocyclohexyl)(2-(((3R,5R)-2-oxo-5-(trifluoromethyl)piperidin-3-yl)methyl)-3-(tetrahydro-2H-pyran-4-yl)imidazo[1,2-b][1,2,4]triazin-6-yl)methyl)-1H-pyrazole-5-carboxamide] |
| < 100 | 100 to 1000 | CCn1nccc1C(=O)N[C@H](c1cn2nc(C[C@H]3C[C@@H](C(F)(F)F)CNC3=O)c(CC3CCOC3)nc2n1)C1CCC(F)(F)CC1 (stereo partly drawn) [Compound 170, N-((1S)-(4,4-difluorocyclohexyl)(2-(((3R,5R)-2-oxo-5-(trifluoromethyl)piperidin-3-yl)methyl)-3-((tetrahydrofuran-3-yl)methyl)imidazo[1,2-b][1,2,4]triazin-6-yl)methyl)-1-ethyl-1H-pyrazole-5-carboxamide] |
| < 100 | > 1000 | CC(C)n1nccc1C(=O)N[C@H](c1cn2nc(CC3C[C@@H](C(F)(F)F)CNC3=O)c(N3CCOCC3)nc2n1)C1CCC(F)(F)CC1 (single isomer, unassigned) [Compound 80] |
| < 100 | > 1000 | CCn1nccc1C(=O)N[C@H](c1cn2nc(C[C@H]3C[C@H](C)CNC3=O)c(C(C)C)nc2n1)C1CCC(F)(F)CC1 [Compound 391] |
| < 100 | < 100 | CCn1nccc1C(=O)N[C@H](c1cn2nc(C[C@H]3C[C@@H](C(F)(F)F)CNC3=O)c(C3CCOC3)nc2n1)[C@H]1CC[C@H](C)CC1 (single isomer, unassigned) [Compound 138] |
| 100 to 1000 | > 1000 | CCn1nccc1C(=O)N[C@H](c1cn2nc(C[C@H]3C[C@@H](C)CNC3=O)c(C(C)C)nc2n1)C1CCC(F)(F)CC1 [Compound 389] |
| < 100 | 100 to 1000 | CCn1nccc1C(=O)N[C@H](c1cn2nc(C[C@H]3C[C@@H](C(F)(F)F)CNC3=O)c(CC3COC3)nc2n1)C1CCC(F)(F)CC1 [Compound 168, N-((1S)-(4,4-difluorocyclohexyl)(3-(oxetan-3-ylmethyl)-2-(((3R,5R)-2-oxo-5-(trifluoromethyl)piperidin-3-yl)methyl)imidazo[1,2-b][1,2,4]triazin-6-yl)methyl)-1-ethyl-1H-pyrazole-5-carboxamide] |
| < 100 | 100 to 1000 | CCn1nccc1C(=O)N[C@H](c1cn2nc(CC3C[C@H](C(F)(F)F)CNC3=O)c(N(C)C)nc2n1)C1CCC(F)(F)CC1 (single isomer, unassigned) [Compound 55] |
| < 100 | 100 to 1000 | CCn1nccc1C(=O)N[C@H](c1cn2nc(C[C@H]3C[C@@H](C(F)(F)F)CNC3=O)c(C3CCOC(C)(C)C3)nc2n1)C1CCC(F)(F)CC1 (single isomer, unassigned) [Compound 163] |
| < 100 | 100 to 1000 | CCn1ncnc1C(=O)N[C@H](c1cn2nc(C[C@H]3C[C@@H](C(F)(F)F)CNC3=O)c(C3CCOCC3)nc2n1)[C@H]1CC[C@H](C)CC1 [Compound 383, 1-ethyl-N—((S)-((1r,4S)-4-methylcyclohexyl)(2-(((3R,5R)-2-oxo-5-(trifluoromethyl)piperidin-3-yl)methyl)-3-(tetrahydro-2H-pyran-4-yl)imidazo[1,2-b][1,2,4]triazin-6-yl)methyl)-1H-1,2,4-triazole-5-carboxamide] |
| < 100 | > 1000 | CCn1nccc1C(=O)N[C@H](c1cn2nc(C[C@H]3C[C@@H](C(F)(F)F)CNC3=O)c(C3(OC)CCOCC3)nc2n1)C1CCC(F)(F)CC1 [Compound 269, N—((S)-(4,4-difluorocyclohexyl)(3-(4-methoxytetrahydro-2H-pyran-4-yl)-2-(((3R,5R)-2-oxo-5-(trifluoromethyl)piperidin-3-yl)methyl)imidazo[1,2-b][1,2,4]triazin-6-yl)methyl)-1-ethyl-1H-pyrazole-5-carboxamide] |
| < 100 | 100 to 1000 | CCn1nccc1C(=O)N[C@H](c1cn2nc(C[C@H]3C[C@@H](C(F)(F)F)CNC3=O)c(C34CCCC(C3)OC4)nc2n1)C1CCC(F)(F)CC1 (stereo partly drawn) [Compound 254, N-((1S)-(3-(6-oxabicyclo[3.2.1]octan-1-yl)-2-(((3R,5R)-2-oxo-5-(trifluoromethyl)piperidin-3-yl)methyl)imidazo[1,2-b][1,2,4]triazin-6-yl)(4,4-difluorocyclohexyl)methyl)-1-ethyl-1H-pyrazole-5-carboxamide] |
| < 100 | 100 to 1000 | CCn1nccc1C(=O)N[C@H](c1cn2nc(CC3C[C@@H](C(F)(F)F)CNC3=O)c(N3CCOCC3)nc2n1)C(C1CC1)C1CC1 (single isomer, unassigned) [Compound 112] |
| < 100 | 100 to 1000 | CCn1nccc1C(=O)N[C@H](c1cn2nc(C[C@@H]3CC(F)(F)CNC3=O)c(C3CCOCC3)nc2n1)[C@H]1CC[C@H](C)CC1 [Compound 223] |
| < 100 | > 1000 | Cc1nonc1C(=O)N[C@H](c1cn2nc(C[C@@H]3C[C@@H](C)CNC3=O)c(C3CCOCC3)nc2n1)C1CCC(F)(F)CC1 [Compound 397] |
| < 100 | < 100 | CCn1nccc1C(=O)N[C@H](c1cn2nc(C[C@H]3C[C@@H](C(F)(F)F)CNC3=O)c(C3CCOCC3)nc2n1)[C@H]1CCCC(F)(F)C1 [Compound 66, N—((S)—((S)-3,3-difluorocyclohexyl)(2-(((3R,5R)-2-oxo-5-(trifluoromethyl)piperidin-3-yl)methyl)-3-(tetrahydro-2H-pyran-4-yl)imidazo[1,2-b][1,2,4]triazin-6-yl)methyl)-1-ethyl-11H-pyrazole-5-carboxamide] |
| < 100 | < 100 | CCn1nccc1C(=O)N[C@H](c1cn2nc(C[C@H]3C[C@@H](C(F)(F)F)CNC3=O)c(C3CCOC3)nc2n1)[C@H]1CCCC(F)(F)C1 (single isomer, unassigned) [Compound 203] |
